Results: a compilation of properties of binary mixtures (doi:10.1021/acs.jced.2c00294)

Assay: xn = mol fraction of the nth substance listed
Conditions: 101 kPa

N#C[N-]S(=O)(=O)C(F)(F)F.[Li+] + CCCC[N+]1(CCCC1)C.[N-](C#N)S(=O)(=O)C(F)(F)F
Conditions | electrical conductivity, x1 = 0.05 [S/m] | electrical conductivity, x1 = 0.1 [S/m] | electrical conductivity, x1 = 0.2 [S/m] | viscosity, x1 = 0.05 [mPa·s] | viscosity, x1 = 0.1 [mPa·s] | viscosity, x1 = 0.2 [mPa·s]
298 K | 0.314 | 0.227 | 0.08 | 73 | 107.9 | 379
303 K | 0.372 | – | 0.101 | 62.2 | – | 312
308 K | 0.442 | 0.334 | 0.127 | 50.5 | 73 | 243
313 K | 0.523 | 0.401 | 0.156 | 42.4 | 60.7 | 191
318 K | 0.611 | 0.513 | – | 35.8 | 50.6 | –
323 K | – | – | 0.234 | – | – | 121.8
328 K | – | – | – | 23.6 | – | 99.9

CCCC[N+]1(C)CCCC1.N#C[N-]S(=O)(=O)C(F)(F)F + [Li+].[N-](C#N)S(=O)(=O)C(F)(F)F
x2 = 0
Conditions | electrical conductivity [S/m] | viscosity [mPa·s]
298 K | 0.458 | 45.9
303 K | 0.546 | 40.4
318 K | 0.869 | 24.6
323 K | 1 | 21.5
328 K | – | 16.19

CCCC[N+]1(C)CCCC1.N#C[N-]C#N + CCCC[N+]1(C)CCCC1.O=S(=O)([N-]S(=O)(=O)C(F)(F)F)C(F)(F)F
x2 = 0.5
Conditions | electrical conductivity [S/m] | viscosity [mPa·s]
298 K | 0.565 | 51.3
303 K | 0.642 | 36.1
308 K | 0.746 | 32
313 K | 0.857 | 26.7
328 K | – | 17.06
